This is an account of results in patent publication US20190119284A1, “ErbB Inhibitors and Uses Thereof” (The Regents of the University of California, priority 2016, published 2019).

One experiment has as its target SRC (Homo sapiens, UniProt P12931). As to the kind of experiment: Nanosyn in vitro kinase profiling: SRC. In kind it is biochemical. To be noted: for inhibition at 1 µM: compound at 1 μM. The procedure:
(§1) This was confirmed by in vitro profiling against a panel of kinases, with compound 2 only showing potent inhibition of EGFR and Ab1 (Table 2).
(§2) In vitro Kinome Screen. In vitro profiling of compound 2 at 100 nM was conducted by Nanosyn.

The next experiment has as its target EPH-A2 (Homo sapiens, UniProt P29317). As to the kind of experiment: Nanosyn in vitro kinase profiling: EPH-A2. In kind it is biochemical. To be noted: for inhibition at 1 µM: compound at 1 μM. The procedure: as §1, §2
The next experiment deals with FGFR1 (Homo sapiens, UniProt P11362). As to the kind of experiment: Nanosyn in vitro kinase profiling: FGFR1. The note with it: for inhibition at 1 µM: compound at 1 μM. Format: biochemical. The method, then: as §1, §2
FGFR1, sequence (P11362 22-822): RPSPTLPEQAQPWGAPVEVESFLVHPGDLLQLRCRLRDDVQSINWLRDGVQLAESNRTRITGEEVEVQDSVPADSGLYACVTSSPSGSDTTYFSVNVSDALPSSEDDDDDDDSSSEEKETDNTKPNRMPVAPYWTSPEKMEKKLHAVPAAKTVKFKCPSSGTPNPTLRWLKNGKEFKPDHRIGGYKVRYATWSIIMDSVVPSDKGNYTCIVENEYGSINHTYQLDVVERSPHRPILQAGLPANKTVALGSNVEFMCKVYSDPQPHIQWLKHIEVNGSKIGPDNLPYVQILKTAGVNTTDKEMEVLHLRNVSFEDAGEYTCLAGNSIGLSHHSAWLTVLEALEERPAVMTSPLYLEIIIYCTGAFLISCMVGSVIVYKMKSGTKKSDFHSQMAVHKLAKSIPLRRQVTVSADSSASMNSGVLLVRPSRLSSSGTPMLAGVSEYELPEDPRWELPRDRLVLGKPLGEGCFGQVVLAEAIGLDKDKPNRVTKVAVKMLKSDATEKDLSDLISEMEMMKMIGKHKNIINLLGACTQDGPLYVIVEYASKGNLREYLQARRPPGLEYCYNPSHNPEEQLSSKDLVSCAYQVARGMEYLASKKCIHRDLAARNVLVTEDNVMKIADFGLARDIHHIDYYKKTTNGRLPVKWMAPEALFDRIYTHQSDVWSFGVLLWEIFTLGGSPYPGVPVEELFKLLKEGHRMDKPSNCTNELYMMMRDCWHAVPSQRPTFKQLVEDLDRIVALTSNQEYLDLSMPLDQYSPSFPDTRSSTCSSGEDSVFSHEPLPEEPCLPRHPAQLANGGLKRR
The next experiment deals with T1, CHEK1 (Homo sapiens, UniProt O14757).
T1 sequence (O14757 1-476): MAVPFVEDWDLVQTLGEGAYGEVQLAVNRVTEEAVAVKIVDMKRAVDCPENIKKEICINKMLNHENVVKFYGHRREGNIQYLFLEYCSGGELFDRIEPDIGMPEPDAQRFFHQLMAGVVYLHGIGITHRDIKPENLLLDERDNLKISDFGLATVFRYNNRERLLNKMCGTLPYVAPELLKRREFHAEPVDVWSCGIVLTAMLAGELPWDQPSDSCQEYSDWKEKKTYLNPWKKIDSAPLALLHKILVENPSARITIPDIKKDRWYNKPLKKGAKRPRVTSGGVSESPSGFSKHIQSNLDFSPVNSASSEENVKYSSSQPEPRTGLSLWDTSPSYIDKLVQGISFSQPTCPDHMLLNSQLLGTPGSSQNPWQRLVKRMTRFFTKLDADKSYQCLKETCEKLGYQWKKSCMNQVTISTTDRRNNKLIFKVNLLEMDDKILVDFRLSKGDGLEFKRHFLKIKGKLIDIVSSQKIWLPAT
The experiment in a line: Nanosyn in vitro kinase profiling: CHEK1. Format: biochemical. To be noted: for inhibition at 1 µM: compound at 1 μM. The procedure:
as §1, §2

The target of experiment [1] is 2YF/3wt + NRG Ba/F3 cells (HER2YF/HER3wt) (Homo sapiens, UniProt P04626, Y1005F/Y1023F/Y1112F/Y1127F/Y1139F/Y1196F/Y1221F/Y1222F/Y1248F, cells depend on it). The experiment in a line: Ba/F3 proliferation assay, 2YF/3wt + NRG. Format: cell-based. In outline: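 Ba/F3 cells stably expressing HER3 and HER2 with 9 C-terminal Tyr→Phe mutations, selected for NRG dependence after IL-3 withdrawal. Cells were given DMSO or compound plus NRG (50 ng/mL final); proliferation normalized to DMSO, fit by log(inhibitor) vs response with variable slope.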
2YF/3wt + NRG Ba/F3 cells (HER2YF/HER3wt), sequence (P04626 whole entry Y1005F/Y1023F/Y1112F/Y1127F/Y1139F/Y1196F/Y1221F/Y1222F/Y1248F): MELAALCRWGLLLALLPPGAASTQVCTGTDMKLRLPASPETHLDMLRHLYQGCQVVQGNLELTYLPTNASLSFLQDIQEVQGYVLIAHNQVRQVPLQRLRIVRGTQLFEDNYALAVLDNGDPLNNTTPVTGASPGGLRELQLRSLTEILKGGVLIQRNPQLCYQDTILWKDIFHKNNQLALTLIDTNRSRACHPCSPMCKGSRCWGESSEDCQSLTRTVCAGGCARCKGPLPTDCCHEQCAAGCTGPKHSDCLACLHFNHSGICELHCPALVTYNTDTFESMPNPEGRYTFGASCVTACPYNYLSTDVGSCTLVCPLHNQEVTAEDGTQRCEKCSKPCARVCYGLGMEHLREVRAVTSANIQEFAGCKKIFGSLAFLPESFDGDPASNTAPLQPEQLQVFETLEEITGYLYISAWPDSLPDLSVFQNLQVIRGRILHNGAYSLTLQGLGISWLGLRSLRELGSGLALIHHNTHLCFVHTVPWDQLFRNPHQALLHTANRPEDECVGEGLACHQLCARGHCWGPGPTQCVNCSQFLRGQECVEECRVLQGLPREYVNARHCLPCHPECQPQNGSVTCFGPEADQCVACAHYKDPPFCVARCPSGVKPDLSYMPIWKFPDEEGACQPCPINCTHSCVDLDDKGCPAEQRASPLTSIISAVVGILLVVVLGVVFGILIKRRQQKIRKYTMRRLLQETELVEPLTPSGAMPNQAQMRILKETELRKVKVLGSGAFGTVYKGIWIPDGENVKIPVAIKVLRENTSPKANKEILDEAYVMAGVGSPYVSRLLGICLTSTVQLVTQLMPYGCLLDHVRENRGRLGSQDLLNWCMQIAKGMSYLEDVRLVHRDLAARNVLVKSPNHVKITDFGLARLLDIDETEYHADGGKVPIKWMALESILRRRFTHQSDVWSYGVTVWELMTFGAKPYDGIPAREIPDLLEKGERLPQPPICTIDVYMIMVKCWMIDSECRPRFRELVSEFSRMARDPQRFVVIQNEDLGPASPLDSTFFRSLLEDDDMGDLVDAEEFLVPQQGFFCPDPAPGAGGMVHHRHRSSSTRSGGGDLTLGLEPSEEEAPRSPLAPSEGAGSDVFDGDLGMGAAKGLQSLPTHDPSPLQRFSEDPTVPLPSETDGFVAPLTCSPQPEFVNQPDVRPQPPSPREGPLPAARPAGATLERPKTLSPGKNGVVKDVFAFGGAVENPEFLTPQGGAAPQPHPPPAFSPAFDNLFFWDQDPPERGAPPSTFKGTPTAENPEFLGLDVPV

Experiment [2] concerns HER2/HER3 heterodimer signaling in MCF-7 cells. As to the kind of experiment: HER2/HER3 signaling in MCF-7 cells, pre-treat vs simultaneous NRG addition. Format: cell-based. The procedure:
FIGS. 2A-2D. […] FIG. 2B: NRG rescues the 72 h proliferation of CW-2 cells, which contain an activating mutation in HER3 (E928G), from HER2 inhibitors (mean±SD, n=3).
FIG. 17. MCF-7 cells were serum starved for 24 h and then either treated with compound 3 for 15 min followed by a 15 min NRG stimulation (15 min pre-treat), or compound 3 and NRG were added simultaneously for 15 min (simultaneous addition).

Experiment [3] concerns HER2YF/HER3E928G (2YF/3EG) Ba/F3 cells. The experiment in a line: Ba/F3 proliferation assay, 2YF/3EG +/- NRG. Format: cell-based. To be noted: + NRG vs no NRG. The source says: Consistent with the results in the HER2 overexpressing cell lines, CW-2 cells that harbor a HER3-activating mutation were equally sensitive to compound 3+/−NRG in both proliferation and signaling assays (FIGS. 6A-6B). […] To further evaluate the potential of compound 3 against HER2 mutants within a HER2/HER3 heterodimer we transduced wt HER3 containing Ba/F3 cells with reported HER2 oncogenic mutants in the HER2YF construct.
For HER2YF/3EG Ba/F3 cells were selected according to the protocol for the HER2YF/3TM Ba/F3's with the exception that no NRG was supplemented in the media during IL-3 independent selection.
Proliferation Assays. For adherent cell lines, cells were plated onto opaque white 96 well plates (Greiner cat #655083) and allowed to adhere overnight. The following day media was changed to fresh media that contained either DMSO or the indicated concentration of drug plus NRG (50 ng/mL final concentration) as indicated. Plates were incubated at 37° C. for 72 h and proliferation was read out using Cell Titer Glo (Promega) according to the manufacturer's protocol. For Ba/F3 cell proliferation, cells, drug dilution, and any necessary growth factors (10 ng/mL IL-3 or 6.25 ng/mL NRG) were combined in a well of a 96 well plate. Plates were incubated at 37° C. for 48 h and proliferation was read out using Cell Titer Glo according to the manufacturer's protocol. For all normalized assays, proliferation was normalized to the DMSO control condition. All graphs were plotted in GraphPad Prism 6 and fit with a non-linear regression of the log(inhibitor) vs response with a variable slope where shown. All graphs are averages (+/−standard deviation) of biological triplicates each performed in technical triplicate unless otherwise noted. If only one biological replicate was performed standard deviations were derived from the technical replicates.

Where two headings read alike, the source gives them in different places.

SRC, sequence (P12931 whole entry): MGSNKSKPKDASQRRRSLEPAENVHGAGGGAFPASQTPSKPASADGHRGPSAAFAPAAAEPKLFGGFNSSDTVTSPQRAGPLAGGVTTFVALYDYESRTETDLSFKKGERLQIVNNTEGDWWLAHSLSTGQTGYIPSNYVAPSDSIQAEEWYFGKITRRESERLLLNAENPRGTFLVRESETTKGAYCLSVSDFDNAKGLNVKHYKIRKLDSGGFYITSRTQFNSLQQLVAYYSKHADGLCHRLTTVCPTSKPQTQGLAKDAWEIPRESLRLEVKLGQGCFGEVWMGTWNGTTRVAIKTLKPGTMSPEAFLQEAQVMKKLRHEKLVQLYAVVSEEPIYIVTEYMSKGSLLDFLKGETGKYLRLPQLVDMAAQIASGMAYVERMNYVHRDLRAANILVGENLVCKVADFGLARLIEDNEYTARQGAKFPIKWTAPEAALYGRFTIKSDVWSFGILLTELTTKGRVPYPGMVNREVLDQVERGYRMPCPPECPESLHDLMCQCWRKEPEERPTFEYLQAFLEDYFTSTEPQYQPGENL
EPH-A2, sequence (P29317 24-976, species assumed): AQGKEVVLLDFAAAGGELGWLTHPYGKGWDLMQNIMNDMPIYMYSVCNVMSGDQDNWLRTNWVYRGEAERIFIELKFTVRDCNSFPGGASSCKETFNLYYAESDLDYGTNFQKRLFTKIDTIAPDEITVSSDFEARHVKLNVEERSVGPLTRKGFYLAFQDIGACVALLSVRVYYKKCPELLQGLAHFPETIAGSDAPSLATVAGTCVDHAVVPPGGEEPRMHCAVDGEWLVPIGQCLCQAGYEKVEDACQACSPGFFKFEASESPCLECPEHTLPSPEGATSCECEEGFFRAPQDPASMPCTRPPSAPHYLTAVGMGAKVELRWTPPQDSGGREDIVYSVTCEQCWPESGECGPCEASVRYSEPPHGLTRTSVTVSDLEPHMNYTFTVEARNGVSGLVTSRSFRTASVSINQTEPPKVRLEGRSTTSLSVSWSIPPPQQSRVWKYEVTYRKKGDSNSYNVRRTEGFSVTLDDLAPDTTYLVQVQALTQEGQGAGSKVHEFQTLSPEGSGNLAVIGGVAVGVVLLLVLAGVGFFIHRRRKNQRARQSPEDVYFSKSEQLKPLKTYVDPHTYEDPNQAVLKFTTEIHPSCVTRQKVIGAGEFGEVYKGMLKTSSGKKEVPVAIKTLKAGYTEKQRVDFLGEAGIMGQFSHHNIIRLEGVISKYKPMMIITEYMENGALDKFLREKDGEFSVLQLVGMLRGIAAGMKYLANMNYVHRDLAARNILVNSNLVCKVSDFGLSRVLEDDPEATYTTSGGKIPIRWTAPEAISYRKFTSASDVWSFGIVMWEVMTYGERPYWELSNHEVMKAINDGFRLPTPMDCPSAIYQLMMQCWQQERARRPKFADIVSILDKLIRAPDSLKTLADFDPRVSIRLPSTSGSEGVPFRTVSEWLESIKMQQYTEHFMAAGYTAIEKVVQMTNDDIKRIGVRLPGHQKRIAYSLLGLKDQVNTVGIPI

Take `COc1ccc(-c2ccco2)cc1Nc1ncnc2[nH]nc(-c3ccco3)c12` [compound 2, 3-(furan-2-yl)-N-(5-(furan-2-yl)-2-methoxyphenyl)-1H-pyrazolo[3,4-d]pyrimidin-4-amine]: the inhibition at 0.1 µM was determined as 63.2% at SRC (compound at 100 nM), 2.42% against EPH-A2 (compound at 100 nM), 48.3% at FGFR1 (compound at 100 nM) and 0.965% at CHEK1 (compound at 100 nM). In addition, the inhibition at 1 µM at SRC came out at 88.9%; against EPH-A2, 21%; at FGFR1 it was 86.3%; against CHEK1, 2.27%.
With `COc1ccc(-c2ccoc2)cc1Nc1ncnc2[nH]cc(-c3cc[nH]n3)c12` [compound 3, N-(5-(furan-3-yl)-2-methoxyphenyl)-5-(1H-pyrazol-3-yl)-7H-pyrrolo[2,3-d]pyrimidin-4-amine], the GI50 in experiment [1] (Table 4; ± S.D., n = 3; 48 h Cell Titer Glo; read-out: IC50, 2YF/3wt + NRG) worked out at 6.8 ± 0.2 nM. The “shift in ability to inhibit signaling +/- pre-incubation” value in experiment [2] (MCF-7, 15 min pre-treat vs simultaneous NRG) is “little to no shift”. In addition, the inhibition at 1 µM against SRC worked out at 95%; at EPH-A2 it was 28%; against FGFR1, 93%; against CHEK1, 10%. Besides, the “reduction of sensitivity on addition of NRG” value in experiment [3] is “less than 5 fold”.
`CS(=O)(=O)CCNCc1ccc(-c2ccc3ncnc(Nc4ccc(OCc5cccc(F)c5)c(Cl)c4)c3c2)o1` [lapatinib]: in experiment [1] (read-out: IC50, 2YF/3wt + NRG; Table 4; ± S.D., n = 3; 48 h Cell Titer Glo), the GI50 is 63.6 ± 12.5 nM. Besides, in experiment [2] (MCF-7, serum starved 24 h), the “efficacy on signaling, 15 min pre-treat vs simultaneous addition with NRG” value is given as “reduced efficacy of lapatinib when simultaneously added with NRG”. Further, in experiment [3], the “reduction of sensitivity on addition of NRG” value stood at 55 fold.

What is called inhibition is the share of the control response that was lost under treatment. Read a low inhibition as a weak effect.
